Laboratory results published in patent EP2522335A1, “Use of resveratrol and sodium-ascorbyl-phophate” (DSM IP Assets B.V., priority 2011, dated 2012).
Like-named read-outs stand apart in the source and are kept apart here.

Test system: TYR
Test: Assessment of gene modulation in normal human epidermal melanocytes (RT-qPCR, PCR array mQPA H-Melanocyte-64)
Format: cell-based
Conditions: NHEM cells, 72 hours treatment
Experimental: Normal human epidermal melanocytes were cultivated for 24 hours. Culture medium was then removed and replaced by fresh medium containing the active ingredient to be evaluated or exempt of it (control). Cells were cultivated for additional 72 hours. All experimental conditions were performed in triplicate. At the end of the cultivation, the cells were harvested and washed with phosphate buffered saline (PBS) solution and immediately frozen at -80 °C. The expression of selected markers was analyzed using RT-qPCR method on mRNA extracted from cells layer for each treatment condition. The differential expression analysis was performed by PCR arrays of the screening format "mQPA H-Melanocyte-64", which focuses on 64 genes selected for their importance in pigmentation and melanocyte biology. Total RNA was extracted from each sample using TRI-Reagent®. The amount and quality of the RNA was evaluated using a lab-on-a-chip Bioanalyzer (Agilent technologies). Potential contaminants traces of DNA were removed […] The incorporation of fluorescence in amplified DNA was measured continuously during the PCR cycles. […] The value selected for RE calculations is the "output point" (Ct) of the fluorescence curve. For a given marker, the highest is the cycle number; the lowest, is the mRNA quantity. The RE value is expressed in arbitrary units (AU) according to the equation: (((1)/(2)))^NC x 10^6 [formula] Where NC is the number of cycles.

[1] = resveratrol 5 µg/ml, sodium-ascorbyl-phosphate 1 mg/ml, combination 5 µg/ml + 1 mg/ml, read-out: TYR (expression ratio compared to control of the gene TYR)
[2] = resveratrol 5 micrograms/ml, sodium-ascorbyl-phosphate 1mg/ml, alone or combined, positive = up-regulation, negative = down-regulation, read-out: up-regulation / down-regulation of TYR when compared to untreated cells

Row | Compound | activation at 5 µg/mL [1] [%] | activation at 5 µg/mL [2] [%] | activation at 1000 µg/mL [1] [%] | activation at 1000 µg/mL [2] [%]
1 | Oc1ccc(C=Cc2cc(O)cc(O)c2)cc1 [Resveratrol, 3,4',5 trihydroxystilbene] | 25 | 25 |  | 
2 | O=C1O[C@H]([C@@H](O)CO)C(O)=C1OP(=O)(O)O [Sodium-ascorbyl-phosphate] |  |  | 30 | 30
